# Results from patent US9913857B2, “Composition and methods of screening” (OPTIBIOTIX LIMITED, priority 2013, dated 2018).
# Columns and labels:
# [1] = system: Lactobacilli; assay: Anaerobic cultures, gut bacterial groups by fluorescent in situ hybridisation: Lactobacilli; assay type: cell-based; design: Lactobacilli 24: unit not given here; conditions: for Lactobacilli 24: 24 hours, anaerobic culture, inoculum 7.15; for Lactobacilli 24 hr % change: 24 hr vs inoculum
# Description: (§1) In these experiments, anaerobic cultures were tested to evaluate the in vitro utilisation of a novel Lactobacillus reuteri galactooligosaccharide by monitoring the populations of gut bacterial groups at 24 hours using fluorescent in situ hybridisation, and short-chain fatty acid […]. Fructooligosaccharides (FOS), melibiose and raffinose were used as reference carbohydrates.
# [2] = system: Eubacteria; assay: Anaerobic cultures, gut bacterial groups by fluorescent in situ hybridisation: Eubacteria; assay type: cell-based; design: Eubacteria 24: unit not given here; conditions: for Eubacteria 24: 24 hours, anaerobic culture, inoculum 8.06; for Eubacteria 24 hr % change: 24 hr vs inoculum
# Description: as §1
# [3] = system: Total count; assay: Anaerobic cultures, gut bacterial groups by fluorescent in situ hybridisation: total count; assay type: cell-based; design: Total count 24: unit not given here; conditions: for Total count 24: 24 hours, anaerobic culture, inoculum 8.84; for Total count 24 hr % change: 24 hr vs inoculum
# Description: as §1
# [4] = system: E. coli; assay: Anaerobic cultures, gut bacterial groups by fluorescent in situ hybridisation: E. coli; assay type: cell-based; design: E. coli 24: unit not given here; conditions: for E. coli 24: 24 hours, anaerobic culture, inoculum 8.14; for E. coli 24 hr % change: 24 hr vs inoculum
# Description: as §1
# [5] = system: Bifidobacteria; assay: Anaerobic cultures, gut bacterial groups by fluorescent in situ hybridisation: Bifidobacteria; assay type: cell-based; design: Bifidobacteria 24: unit not given here; conditions: for Bifidobacteria 24: 24 hours, anaerobic culture, inoculum 6.85; for Bifidobacteria 24 hr % change: 24 hr vs inoculum
# Description: as §1
# [6] = system: Bacteroides; assay: Anaerobic cultures, gut bacterial groups by fluorescent in situ hybridisation: Bacteroides; assay type: cell-based; design: Bacteroides 24: unit not given here; conditions: for Bacteroides 24: 24 hours, anaerobic culture, inoculum 7.98; for Bacteroides 24 hr % change: 24 hr vs inoculum
# Description: as §1
# [7] = system: Clostridia; assay: Anaerobic cultures, gut bacterial groups by fluorescent in situ hybridisation: Clostridia; assay type: cell-based; design: Clostridia 24: unit not given here; conditions: for Clostridia 24: 24 hours, anaerobic culture, inoculum 7.55; for Clostridia 24 hr % change: 24 hr vs inoculum
# Description: as §1
# [8] = system: Lactobacilli strains; assay: Bacterial growth curve with lactose as growth medium; assay type: cell-based, Lactobacillus; conditions: around 13 hours, from approximately 6.5, L. plantarum, L. casei, L. salivarius, L. rhanmosus, L. delbrueckii
# Description: Bacterial growth curve determination was undertaken by sampling cultures at 0 h, 3 h, 5 h, 8 and 24 h intervals using a 100 μL of dilution series of culture in 900 μL PBS. 20 μL of each series was spread onto a jar and with a negative control and growth assessed.
# Bacterial count of several of the strains was assessed by using 0.1% lactose as the growth medium.
# Bacterial count of several of the strains was assessed by using 5% lactose as the growth medium. FIGS. 2A-2G show the bacterial count over time using 5% lactose as a growth medium for L. plantarum, L. casei, L. salivarius, L. delbrueckii, L. rhanmosus, L. acidophilus and L. helveticus.
Structure (SMILES),Lactobacilli 24 [1],Lactobacilli 24 hr % change [1],Eubacteria 24 [2],Eubacteria 24 hr % change [2],Total count 24 [3],Total count 24 hr % change [3],E. coli 24 [4],E. coli 24 hr % change [4],Bifidobacteria 24 [5],Bifidobacteria 24 hr % change [5],Bacteroides 24 [6],Bacteroides 24 hr % change [6],Clostridia 24 [7],Clostridia 24 hr % change [7],"bacterial count ([8]; 0.1% lactose as growth medium, L. fermentum)","bacterial count ([8]; 5% lactose as growth medium, L. acidophilus, L. helveticus)"
"OC[C@H]1O[C@H](OCC2O[C@@H](O)[C@H](O)[C@@H](O)[C@@H]2O)[C@H](O)[C@@H](O)[C@H]1O (stereo partly drawn) [Melibiose, melibiose]",7.43,104%,7.84,97%,9.14,103%,7.66,94%,7.33,107%,7.9,99%,7.65,101%,–,–
OC[C@H]1O[C@@H](O[C@H]2[C@H](O)[C@@H](O)C(O)O[C@@H]2CO)[C@H](O)[C@@H](O)[C@H]1O (stereo partly drawn) [lactose],–,–,–,–,–,–,–,–,–,–,–,–,–,–,over 9.5 log 10 CFU/ml,over 9.5 log 10 CFU/ml
"OC[C@H]1O[C@H](OC[C@H]2O[C@H](O[C@]3(CO)O[C@H](CO)[C@@H](O)[C@@H]3O)[C@H](O)[C@@H](O)[C@@H]2O)[C@H](O)[C@@H](O)[C@H]1O [Raffinose, raffinose]",7.45,104%,8.69,108%,9.19,104%,8.03,99%,7.69,112%,8.08,101%,7.81,103%,–,–
